From US20130096092A1, “THIOETHER PRODRUG COMPOSITIONS AS ANTI-HIV AND ANTI-RETROVIRAL AGENTS” (Health and Human Services, priority 2010, published 2013)
Like-named read-outs stand apart in the source and are kept apart here.

What was measured:
[1] = Compound toxicity in monocyte-macrophages; format: cell-based; conditions: human, monocyte-macrophages; Table 1; read-out: TC50, Monocytes-macrophages
monocyte-macrophages = assay: Compound toxicity in monocyte-macrophages; format: cell-based; conditions: Table 2; read-out: TC50, Monocyte/Macrophage
[2] = Compound toxicity by XTT in uninfected CEM-SS cells; format: cell-based; conditions: human; Table 1; uninfected CEM-SS cells, XTT; read-out: TC50, CEM-SS cells
Description: (§1) The HIV cytoprotection assay has been previously described in Weislow, O, S. et al., J. Natl. Cancer Inst. 81, 577-86 (1989); Rice, W. G. et al., Antimicrob. Agents Chemother. 41, 419-26 (1997), and Rice, W. G. et al., Proc. Natl. Acad. Sci. USA 90, 9721-4 (1993). CEM-SS cells infected with HIV-1IIIB or monocyte-macrophages infected with HIVBaL were incubated with the compound for 6 days and antiviral activity determined by measurement of cell survival (cytoprotection) using XTT (2,3-bis(2-methoxy-4-nitro-5-sulfophenyl)-5-[(phenylamino)carbonyl]-2H-tetrazolium hydroxide) dye reduction. AZT was used as a positive control for all assays with each assay performed in duplicate with triplicate determinations per condition. Compound toxicity was measured the same way in uninfected CEM-SS cells. Effective antiviral concentrations providing 50% cytoprotection (EC50) and cellular growth inhibitory concentrations causing 50% cytotoxicity (IC50) were calculated.

CEM-SS cells = assay: as above; format: cell-based; conditions: Table 2; read-out: TC50, CEM-SS cells
Description: as §1

HIV-1IIIB [3] = assay: XTT cytoprotection assay, CEM-SS cells infected with HIV-1IIIB; format: cell-based; conditions: Human immunodeficiency virus 1, 144 h, Table 1, 6 days, read-out: EC50 (50% cytoprotection), CEM-SS cells
Description: as §1
(§2) Three compounds were assayed for antiviral activity using the XTT cytoprotection assay in CEM-SS cells infected with HIV-1IIIB and in monocyte-macrophages infected with HIVBaL and assayed for virucidal activity. The compounds are compound 7a (invention), 8 (comparative), and 7f (comparative).

[4] = pH stability in buffers (RP-HPLC); format: physicochemical; conditions: 250 μM; pH 5.0, 7.0, 9.0 buffers; 25° C., 30 days; FIG. 5
Description: This example illustrates the pH stability of compound 7a. Compound 7a was dissolved in DMSO and diluted into the 100 mM sodium acetate buffer at pH 5.0 (shown in FIG. 5 as diamonds), 100 mM sodium phosphate buffer at pH 7.0 (shown in FIG. 5 as circles), and 100 mM Tris-HCl buffer at pH 9.0 (shown in FIG. 5 as squares) at a final compound concentration of 250 μM. The samples were incubated at 25° C. over the course of 30 days and the amount of intact compound was measured over time using RP-HPLC. The results are illustrated in FIG. 5.

[5] = Human plasma stability (RP-HPLC); format: in vitro ADME; conditions: 20 μM in 50% human plasma in PBS, 37° C., 1 hour; FIG. 7
Description: Compound 8 (comparative), compound 7a (invention), compound 10 (invention), compound 11 (invention), and compound 12 (invention) were dissolved in DMSO and diluted into 50% human plasma in PBS buffer at a final concentration of 20 μM. The samples were incubated at 37° C. for 1 hour and the amount of intact compound measured using RP-HPLC. The results are illustrated in FIG. 7.

[6] = Stability in vaginal fluid simulant (RP-HPLC); format: physicochemical; conditions: 400 μM; 25° C., 30 days; FIG. 6; compared with compound 8
Description: The final concentration of the compounds was 400 μM. The samples were incubated at 25° C. over the course of 30 days and the amount of intact compound was measured over time using RP-HPLC. […] The results are illustrated in FIG. 6.

HIV-1RF = assay: XTT cytoprotection assay, CEM-SS cells infected with HIV-1RF; format: cell-based; conditions: Human immunodeficiency virus 1, Table 2, read-out: EC50 (50% cytoprotection), CEM-SS cells
Description: as §1
(§3) Four compounds along with a positive control were assayed for antiviral activity using the XTT cytoprotection assay as described in Example 4. The cells used were CEM-SS cells infected with HIV-1RF, monocyte-macrophages infected with HIVBaL, and peripheral blood mononuclear cells (PBMC) infected with HIV-1HT/92/599. The compounds are compound 8 (comparative), 7a (invention), 10 (invention), 11 (invention), and 12 (invention).

[7] = Compound toxicity in PBMC; format: cell-based; conditions: human, peripheral blood mononuclear cells (PBMC); Table 2; read-out: TC50, PBMC
Description: as §1, §3

HIV-1IIIB [8] = assay: Cell-free virus inactivation (virucidal) assay; format: cell-based; conditions: for EC50: Human immunodeficiency virus 1, Table 1, HIV-1IIIB incubated with compound 2 h at 37° C., then added to CEM-SS cells
Description: Cell-free virus inactivation assays were performed as previously described in Song, Y. et al., Bioorg. Med. Chem. 10, 1263-73 (2002). Briefly, HIV-1IIIB was incubated with three concentrations of each compound for 2 h at 37° C. and then pelleted at 4° C. for 90 minutes at 18,000×g. Following several washes with DPBS to remove unbound compound, the virus was resuspended in cell culture media and added to CEM-SS cells at a titer to yield 85-90% cell killing at day 6 post-infection.

HIVBaL = assay: XTT cytoprotection assay, monocyte-macrophages infected with HIVBaL; format: cell-based, HIV; conditions: for EC50: monocyte-macrophages infected with HIVBaL, XTT
Description: as §1
as §2, with “(comparative). The structure of compound 8 is as follows:” for “(comparative).”
as §3

HIV-1HT/92/599 = assay: XTT cytoprotection assay, PBMC infected with HIV-1HT/92/599; format: cell-based; conditions: Human immunodeficiency virus 1; Table 2; PBMC infected with HIV-1HT/92/599, XTT; read-out: EC50 (50% cytoprotection), PBMC
Description: as §1, §3

[9] = Human immunodeficiency virus 1, 144 h, Table 1, 6 days, read-out: EC50 (50% cytoprotection), Monocytes-macrophages
[10] = Human immunodeficiency virus 1, Table 2, read-out: EC50 (50% cytoprotection), Monocyte/Macrophage

CC(C)C(=O)Oc1ccc(CSc2ccccc2C(=O)NCCC(N)=O)cc1 [Compound 7a, N-{2-[4-(isopropylcarbonyloxy)benzylthio]benzoyl}-β-alaninamide]
CC50 at 6 days [1]: > 100 µM
CC50 (monocyte-macrophages): > 100 µM
CC50 at 6 days [2]: > 100 µM
CC50 (CEM-SS cells): > 100 µM
EC50 (HIV-1IIIB [3]): 0.2 µM
pH stability, intact compound over time [4]: most stable at acidic pH
stability in human plasma, intact compound [5]: did not exhibit stability
stability in vaginal fluid simulant, intact compound over time [6]: significantly more stable
EC50 (HIV-1RF): 0.2 µM
CC50 at 6 days [7]: > 100 µM
EC50 (HIV-1IIIB [8]): 9.8 µM
EC50 (HIVBaL; [9]): 0.6 µM
EC50 (HIVBaL; [10]): 0.62 µM
EC50 (HIV-1HT/92/599): 4.06 µM

NC(=O)CCNC(=O)c1ccccc1SCc1ccccc1 [Compound 7f]
CC50 at 6 days [1]: > 100 µM
CC50 at 6 days [2]: > 100 µM
EC50 (HIV-1IIIB [3]): 34.9 µM
EC50 (HIV-1IIIB [8]): > 100 µM
activity in the antiviral assay against HIV-1IIIB (HIV-1IIIB [8]; virucidal assay, as compared to compound 7a): inactive
EC50 (HIVBaL; [9]): > 100 µM
activity in cytoprotection assay against infected monocytes-macrophages (HIVBaL; as compared to compound 7a): inactive

CC(=O)Sc1ccccc1C(=O)NCCC(N)=O [Compound 8]
CC50 at 6 days [1]: > 100 µM
CC50 (monocyte-macrophages): > 100 µM
CC50 at 6 days [2]: > 100 µM
CC50 (CEM-SS cells): > 100 µM
EC50 (HIV-1IIIB [3]): 0.6 µM
EC50 (HIV-1RF): 0.6 µM
CC50 at 6 days [7]: > 100 µM
EC50 (HIV-1IIIB [8]): 0.9 µM
EC50 (HIVBaL; [9]): 2 µM
EC50 (HIVBaL; [10]): 1.97 µM
EC50 (HIV-1HT/92/599): 5.74 µM
